In article PMC3402233 (International Journal of Pharmaceutics, 2012):

Columns and labels:
[1] = biological target: T1, P-gp (MDR1) (Homo sapiens, UniProt P08183); assay: Cellular accumulation of vandetanib in MDCKII-MDR1 vs parent WT cells; conditions: 100nM vandetanib, 60 min accumulation
[2] = test system: MDCK-WT cell monolayers; assay: Bi-directional transport across MDCKII-WT cell monolayers; format: in vitro ADME, canine; conditions: 5μM vandetanib
[3] = as above; format: in vitro ADME, canine; conditions: dog, MDCK
[4] = Brain accumulation and plasma pharmacokinetics of vandetanib in FVB mice; format: in vivo, male FVB wild type mice
[5] = biological target: T1, P-gp (MDR1); assay: Bi-directional transport across MDCKII-MDR1 cell monolayers; format: in vitro ADME
[6] = biological target: T2, Bcrp1 (Mus musculus, UniProt Q7TMS5); assay: Bi-directional transport across MDCKII-Bcrp1 cell monolayers; format: in vitro ADME, murine
T2 sequence (Q7TMS5 1-657): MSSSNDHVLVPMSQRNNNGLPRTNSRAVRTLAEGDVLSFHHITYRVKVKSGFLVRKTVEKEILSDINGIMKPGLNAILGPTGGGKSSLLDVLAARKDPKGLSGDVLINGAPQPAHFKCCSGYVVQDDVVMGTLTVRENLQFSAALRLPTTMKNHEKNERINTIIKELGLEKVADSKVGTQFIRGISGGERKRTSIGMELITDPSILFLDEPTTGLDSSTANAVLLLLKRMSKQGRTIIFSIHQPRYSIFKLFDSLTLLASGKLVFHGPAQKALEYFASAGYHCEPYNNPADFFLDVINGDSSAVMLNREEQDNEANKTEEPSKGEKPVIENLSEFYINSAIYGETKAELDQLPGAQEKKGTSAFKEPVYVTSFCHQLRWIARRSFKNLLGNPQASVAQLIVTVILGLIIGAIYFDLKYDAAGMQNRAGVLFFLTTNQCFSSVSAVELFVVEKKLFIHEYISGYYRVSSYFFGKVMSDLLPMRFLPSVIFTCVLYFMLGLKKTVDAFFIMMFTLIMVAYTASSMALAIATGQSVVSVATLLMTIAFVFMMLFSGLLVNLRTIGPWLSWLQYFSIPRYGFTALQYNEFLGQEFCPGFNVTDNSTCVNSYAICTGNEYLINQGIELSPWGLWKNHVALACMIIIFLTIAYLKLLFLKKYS

[7] = biological target: P-gp (Homo sapiens, UniProt P08183); assay: P-gp inhibition: [3H]digoxin accumulation in MDCK-MDR1 cells; format: cell-based
P-gp, sequence (P08183 whole entry): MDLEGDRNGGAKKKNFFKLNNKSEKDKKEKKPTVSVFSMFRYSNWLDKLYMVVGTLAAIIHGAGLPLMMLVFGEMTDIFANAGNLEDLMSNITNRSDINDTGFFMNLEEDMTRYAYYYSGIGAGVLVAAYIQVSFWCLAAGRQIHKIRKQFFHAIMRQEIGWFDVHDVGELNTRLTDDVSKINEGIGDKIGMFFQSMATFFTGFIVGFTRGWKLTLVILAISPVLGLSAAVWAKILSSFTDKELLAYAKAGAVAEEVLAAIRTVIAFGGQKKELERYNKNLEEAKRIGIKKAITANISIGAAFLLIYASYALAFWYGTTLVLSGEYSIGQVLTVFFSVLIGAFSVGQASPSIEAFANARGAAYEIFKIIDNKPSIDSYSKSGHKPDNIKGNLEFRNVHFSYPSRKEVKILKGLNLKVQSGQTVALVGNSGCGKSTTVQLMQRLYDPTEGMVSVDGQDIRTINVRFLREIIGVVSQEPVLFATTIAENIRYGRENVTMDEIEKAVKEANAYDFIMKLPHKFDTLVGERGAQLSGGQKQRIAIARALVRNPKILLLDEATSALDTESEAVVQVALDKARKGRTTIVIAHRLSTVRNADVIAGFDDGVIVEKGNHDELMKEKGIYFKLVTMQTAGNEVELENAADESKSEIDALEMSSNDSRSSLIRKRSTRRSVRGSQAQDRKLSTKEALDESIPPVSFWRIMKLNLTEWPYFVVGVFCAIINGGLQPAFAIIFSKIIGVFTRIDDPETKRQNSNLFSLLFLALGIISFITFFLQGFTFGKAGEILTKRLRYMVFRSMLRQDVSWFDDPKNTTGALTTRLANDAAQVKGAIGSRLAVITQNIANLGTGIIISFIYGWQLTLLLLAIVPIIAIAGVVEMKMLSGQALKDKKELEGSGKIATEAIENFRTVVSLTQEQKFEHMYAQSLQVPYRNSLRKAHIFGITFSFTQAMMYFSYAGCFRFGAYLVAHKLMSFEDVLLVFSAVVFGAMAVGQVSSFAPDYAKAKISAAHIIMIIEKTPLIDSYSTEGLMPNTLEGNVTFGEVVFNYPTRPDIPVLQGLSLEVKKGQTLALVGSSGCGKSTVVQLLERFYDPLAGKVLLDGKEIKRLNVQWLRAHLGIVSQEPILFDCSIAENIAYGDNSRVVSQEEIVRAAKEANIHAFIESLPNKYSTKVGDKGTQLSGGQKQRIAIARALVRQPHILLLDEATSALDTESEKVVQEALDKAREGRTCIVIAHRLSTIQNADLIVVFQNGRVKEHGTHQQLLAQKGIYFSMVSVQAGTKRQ

[8] = biological target: T2, Bcrp1; assay: Bcrp1 inhibition: [3H]abacavir accumulation in MDCK-Bcrp1 cells; format: cell-based, murine; conditions: 10, 25 and 50μM inhibitor
[9] = male, FVB, mouse, plasma, iv, 5 mg/kg

T1 sequence (P08183 whole entry): as above

| Directionality of vandetanib transport across WT cells [2] | Papp A→B at 240 min, 5 μM [3] | Papp B→A at 240 min, 5 μM [3] | efflux ratio at 240 min, 5 μM [3] | AUC(0-t) ([4]; male, FVB, mouse, brain, iv, 5 mg/kg) | AUC(0-t) [4, 9] | Vd [4, 9] | clearance [4, 9] | Papp A→B at 240 min, 5 μM ([5]; dog, MDCK-MDR1) | Papp B→A at 240 min, 5 μM ([5]; dog, MDCK-MDR1) | efflux ratio at 240 min, 5 μM ([5]; dog, MDCK-MDR1) | Papp A→B at 240 min, 5 μM [6] | Papp B→A at 240 min, 5 μM [6] | efflux ratio at 240 min, 5 μM [6] | IC50 [7] | Intracellular accumulation of [3H]abacavir in MDCK-Bcrp1 cells in the presence of inhibitor [8] | Structure (SMILES) | Vandetanib accumulation in MDR1 overexpressing cells versus WT cells [1] | Brain concentrations compared with plasma concentrations ([4]; vandetanib 5mg/kg i.v. alone, 15, 30, 60 and 120min) | Directional flux of vandetanib across MDR1 transfected cells ([5]; 5μM vandetanib) |
| --- | --- | --- | --- | --- | --- | --- | --- | --- | --- | --- | --- | --- | --- | --- | --- | --- | --- | --- | --- |
| no directionality in transport | 7.57 ± 0.52 ×10⁻⁶ cm/s | 8.08 ± 0.17 ×10⁻⁶ cm/s | 1.06 | 1050 ng·h/mL | 5090 ng·h/mL | 1.3 L/kg | 9.36 mL/min/kg | 5.73 ± 0.29 ×10⁻⁶ cm/s | 4.66 ± 0.26 ×10⁻⁶ cm/s | 0.81 | 5.66 ± 1.26 ×10⁻⁶ cm/s | 42.3 ± 2.64 ×10⁻⁶ cm/s | 7.5 |  |  | COc1cc2c(Nc3ccc(Br)cc3F)ncnc2cc1OCC1CCN(C)CC1 [Vandetanib] | not statistically different from WT cells | Brain concentrations were significantly lower than the plasma concentration | No significant difference was observed in the directional flux |
|  |  |  |  |  |  |  |  |  |  |  |  |  |  | 3 µM | increased significantly | CO[C@H]1C[C@@H]2CC[C@@H](C)[C@@](O)(O2)C(=O)C(=O)N2CCCC[C@H]2C(=O)O[C@H]([C@H](C)C[C@@H]2CC[C@@H](OCCO)[C@H](OC)C2)CC(=O)[C@H](C)/C=C(\C)[C@@H](O)[C@@H](OC)C(=O)[C@H](C)C[C@H](C)/C=C/C=C/C=C/1C [everolimus] |  |  |  |
|  |  |  |  |  |  |  |  |  |  |  |  |  |  | 3.5 µM | increased significantly | CO[C@H]1C[C@@H]2CC[C@@H](C)[C@@](O)(O2)C(=O)C(=O)N2CCCC[C@H]2C(=O)O[C@H]([C@H](C)C[C@@H]2CC[C@@H](OC(=O)C(C)(CO)CO)[C@H](OC)C2)CC(=O)[C@H](C)/C=C(\C)[C@@H](O)[C@@H](OC)C(=O)[C@H](C)C[C@H](C)/C=C/C=C/C=C/1C [temsirolimus] |  |  |  |
